Reference: PubChem BioAssay (NCI)
“And” between values parts separate entries of the source, which are not always exact repeats. Equal values may be shown once.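 Briefly, cells in 96-well plates were exposed to five compound concentrations for 48 h, and endpoints were estimated by linear interpolation. GI50 is the concentration that inhibits growth by half. Definition used: TGI = concentration required for complete inhibition of growth.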

Assays:
Assay in all cases: NCI tumour cell line growth inhibition, 48 h
HCC-2998 colon = test system: HCC-2998 colon
NCI-H460 lung = test system: NCI-H460 lung
MOLT-4 leukemia = test system: MOLT-4 leukemia
CAKI-1 renal = test system: CAKI-1 renal
NCI-H23 lung = test system: NCI-H23 lung
MALME-3M melanoma = test system: MALME-3M melanoma
EKVX NSCLC = test system: EKVX NSCLC
A549 NSCLC = test system: A549 NSCLC
SNB-75 CNS = test system: SNB-75 CNS
T-47D breast = test system: T-47D breast

SMILES	TGI (HCC-2998 colon)	TGI (NCI-H460 lung)	TGI (MOLT-4 leukemia)	TGI (CAKI-1 renal)	TGI (NCI-H23 lung)	TGI (MALME-3M melanoma)	TGI (EKVX NSCLC)	TGI (A549 NSCLC)	TGI (SNB-75 CNS)	TGI (T-47D breast)	GI50 (NCI-H460 lung)	GI50 (EKVX NSCLC)	GI50 (T-47D breast)	GI50 (A549 NSCLC)
O=C1C=CC(=O)N1Nc1ccc([N+](=O)[O-])cc1[N+](=O)[O-]	> 100 µM	> 100 µM	> 75.2 µM	> 71 µM	> 100 µM	31.1 µM	> 100 µM	> 100 µM	> 100 µM					
COc1ccc(C(OCC2OC(n3cc(C)c(=O)[nH]c3=O)CC2n2cc(Cn3cc(F)c(=O)[nH]c3=O)nn2)(c2ccccc2)c2ccccc2)cc1 (stereo not drawn)	15.1 µM		18.6 µM	25 µM	27.9 µM	31.8 µM	23.3 µM	> 100 µM	42.5 µM	24.4 µM				
C=CCO/N=C/c1cc(NC(=S)c2ccoc2C)ccc1Cl	24 µM		29.4 µM	23.6 µM	26.7 µM	31.3 µM	29.2 µM	> 100 µM	38.2 µM	23.7 µM				
COc1cc([N+](=O)[O-])c(OC)cc1-c1nc2sc(Cl)cn2c1/C=N/Nc1ccccn1		> 50 µM					> 50 µM	> 50 µM		> 50 µM	15.8 µM	> 50 µM	20.6 µM	> 50 µM
COc1ccc(CC(O)CN2CCOCC2)cc1 (stereo not drawn)		> 100 µM	> 100 µM	> 100 µM	> 100 µM	> 100 µM	> 100 µM	> 100 µM		> 100 µM				
Cc1cn(C2OC(C)(CO)C(O)C2O)c(=O)[nH]c1=O (stereo not drawn)	> 100 µM	> 100 µM	> 100 µM	> 100 µM	> 100 µM	> 100 µM		> 100 µM	> 100 µM					
N#C/C(=C\c1cc(Br)c(O)c(Br)c1)c1cccnc1	> 100 µM	> 100 µM	> 100 µM	> 100 µM	52.8 µM	41.6 µM	53.3 µM	> 100 µM	> 100 µM					
Cc1c(C(=O)CSc2nc3ccccc3c(=O)n2-c2ccccc2)c(=O)n(-c2ccccc2)n1C	> 100 µM	> 100 µM	> 100 µM	0.729 µM	> 100 µM	> 100 µM		> 100 µM	> 100 µM					
COc1cc(C2CC(C)(Nc3ccccc3)Oc3cc4c(cc32)OCO4)cc(OC)c1OC (stereo not drawn)	3.98 µM	25.6 µM	> 31.6 µM	> 71.8 µM	> 33.6 µM	> 100 µM	> 100 µM	> 100 µM	> 100 µM					
CC(C(=O)n1nnc2ccccc21)N(c1ccccc1)c1ccccc1 (stereo not drawn)	> 100 µM	> 100 µM	> 100 µM	> 100 µM	> 100 µM	> 100 µM	> 100 µM	> 100 µM	> 100 µM					
Cc1cc2[nH]c3[nH]c(=O)[nH]c(=O)c3c2cc1C	> 100 µM			> 100 µM	> 100 µM	> 100 µM	> 100 µM	> 100 µM	> 100 µM	> 100 µM				
CCOC(=O)/C=C(\C)c1ccc(C)cc1C	> 100 µM	> 100 µM	> 100 µM	> 100 µM	> 100 µM	53.9 µM	> 100 µM	> 100 µM	> 100 µM					
CC(C)(C)NC(=O)/C(=C\Sc1ccccc1)c1ccc2c(c1)OCO2	> 100 µM		> 100 µM	> 100 µM	> 100 µM		> 100 µM	> 100 µM		> 100 µM				
Cc1csc(-c2cn(C)c3c2C(=O)C(N)=CC3=O)n1	> 100 µM	15.9 µM	> 27.9 µM	> 64.4 µM	> 30 µM		> 100 µM	8.76 µM	6.48 µM	> 100 µM				
O=C(NCCN1CCOCC1)c1ccc2cc(C(=O)N3CC(CCl)c4ccc([N+](=O)[O-])cc43)[nH]c2c1 (stereo not drawn)	29.7 µM	26.1 µM	39.1 µM	52.4 µM	> 100 µM		86.3 µM	26.1 µM		> 100 µM				
COc1cc(NS(C)(=O)=O)ccc1N1Cc2cnc3ccc4[nH]c(C)cc1c4c23	> 100 µM	> 100 µM	> 100 µM	74.5 µM	> 100 µM		> 100 µM	> 100 µM	46.5 µM					
Cc1c2c(n(CCc3ccc(Cl)cc3)c1C)NN=C(C#N)S2(=O)=O	> 100 µM	> 100 µM	> 100 µM		> 100 µM	> 100 µM	> 100 µM	> 100 µM	> 100 µM	> 100 µM				
C=CCNC(=S)/N=C/c1c(O)c2ccccc2oc1=O	> 100 µM	> 100 µM	> 100 µM	82.6 µM	> 100 µM	96 µM	> 100 µM	> 100 µM	> 100 µM					
O=C1CN2C(c3ccccc3)=NN(c3ccc([N+](=O)[O-])cc3)C2(c2ccccc2)c2cc(Cl)ccc2N1CC1CC1 (stereo not drawn)	> 100 µM	> 100 µM	> 100 µM	> 100 µM	> 100 µM	> 100 µM	> 100 µM	> 100 µM	> 100 µM					
CC(=O)N/N=C1\NC(=O)C[C@H]2[C@@H]3CC=C4C[C@@H](OC(C)=O)CC[C@]4(C)[C@H]3CC[C@]12C			> 100 µM	> 100 µM	> 100 µM	> 100 µM	> 100 µM	> 100 µM	46.9 µM	> 100 µM				
O=c1ccc2cc3ccc4cccc5ccc(c2o1)c3c45		> 100 µM	> 100 µM	> 100 µM	> 100 µM	> 100 µM	> 100 µM		50 µM					
CC[C@H]1CN2CCc3cc(OC)c(OC)cc3[C@@H]2C[C@@H]1C[C@H]1NCCc2cc(OC)c(OC)cc21	0.0943 µM and 0.0555 µM	0.0713 µM and 0.03 µM		0.111 µM and 0.333 µM	0.14 µM and 0.026 µM	0.255 µM	0.151 µM and 0.144 µM			0.0887 µM				
O=C1/C(=C\c2cccc(Oc3ccccc3)c2)S(=O)(=O)C(c2ccccc2)N1Cc1ccccc1 (stereo not drawn)	82.5 µM	40.9 µM	7.7 µM	75 µM	> 100 µM	37.8 µM	71.9 µM	> 100 µM		> 100 µM				
